Measured values taken from patent US20080051429A1, “USE OF 4-AMINO-PIPERIDINES FOR TREATING SLEEP DISORDERS” (priority 2006, published 2008).
Blank lines part the entries; values can stand above or below the molecule they belong to.

Legend:
m3 = target: T1, m3 (Homo sapiens, UniProt P20309); test: R-SAT broad profiling; assay type: cell-based; details: read-out: pEC50 or pIC50 (converted)
T1 construct: expressed in transfected cells; host or cells: NIH3T3
Procedure: (§1) The functional receptor assay, Receptor Selection and Amplification Technology (R-SAT), was used (with minor modifications from that previously described U.S. Pat. No. 5,707,798) to screen compounds for efficacy at the 5-HT2A receptor. Briefly, NIH3T3 cells were grown in 96 well tissue culture plates to 70-80% confluence. Cells were transfected for 12-16 hours with plasmid DNAs using superfect (Qiagen Inc.) as per manufacture's protocols. R-SAT's were generally performed with 50 ng/well of receptor and 20 ng/well of Beta-galactosidase plasmid DNA. All receptor and G-protein constructs used were in the pSI mammalian expression vector (Promega Inc) as described in U.S. Pat. No. 5,707,798. The 5HT2A receptor gene was amplified by nested PCR from brain cDNA using the oligodeoxynucleotides based on the published sequence (see Saltzman et. al. Biochem. Biophys. Res. Comm. 181:1469-78 (1991)). Large-scale transfections, cells were transfected for 12-16 hours, then trypsinized and frozen in DMSO. Frozen cells were later thawed, plated at 10,000-40,000 cells per well of a 96 well plate that contained drug. With both methods, cells were then grown in a humidified atmosphere with 5% ambient CO2 for five days. Media was then removed from the plates and marker gene activity was measured by the addition of the beta-galactosidase substrate ONPG (in PBS with 5% NP-40). The resulting colorimetric reaction was measured in a spectrophotometric plate reader (Titertek Inc.)at […]. All data were analyzed using the computer program XLFit (IDBSm). Efficacy is the percent maximal repression compared to repression by a control compound (ritanserin in the case of 5HT2A). pIC50 is the negative of the log(IC50), where IC50 is the calculated concentration in Molar that produces 50% maximal repression.
(§2) The R-SAT assay (described above in example 289) was used to investigate the selectivity of 4-(4-Fluoro-benzyl)-3-(4-isobutoxy-benzyl)-8-methyl-1-oxa-3,8-diaza-spiro[4.5]decan-2-one.

D3 = target: T2, D3 (Homo sapiens, UniProt P35462); test: R-SAT broad profiling; assay type: cell-based; details: read-out: pEC50 or pIC50 (converted)
T2 construct: expressed in transfected cells; host or cells: NIH3T3
Procedure: as §1, §2

oprk 1 = target: T3, oprk 1 (Homo sapiens, UniProt P41145); test: R-SAT broad profiling; assay type: cell-based; details: read-out: pEC50 or pIC50 (converted)
T3 construct: expressed in transfected cells; host or cells: NIH3T3
Procedure: as §1, §2

alpha 1B = target: T4, alpha 1B (Mesocricetus auratus, UniProt P18841); test: R-SAT broad profiling; assay type: cell-based; details: read-out: pEC50 or pIC50 (converted)
T4 construct: expressed in transfected cells; host or cells: NIH3T3
Procedure: as §1, §2

m2 = target: T5, m2 (Homo sapiens, UniProt P08172); test: R-SAT broad profiling; assay type: cell-based; details: agonist; read-out: pEC50 or pIC50 (converted)
T5 construct: expressed in transfected cells; host or cells: NIH3T3
T5 sequence (P08172 1-466): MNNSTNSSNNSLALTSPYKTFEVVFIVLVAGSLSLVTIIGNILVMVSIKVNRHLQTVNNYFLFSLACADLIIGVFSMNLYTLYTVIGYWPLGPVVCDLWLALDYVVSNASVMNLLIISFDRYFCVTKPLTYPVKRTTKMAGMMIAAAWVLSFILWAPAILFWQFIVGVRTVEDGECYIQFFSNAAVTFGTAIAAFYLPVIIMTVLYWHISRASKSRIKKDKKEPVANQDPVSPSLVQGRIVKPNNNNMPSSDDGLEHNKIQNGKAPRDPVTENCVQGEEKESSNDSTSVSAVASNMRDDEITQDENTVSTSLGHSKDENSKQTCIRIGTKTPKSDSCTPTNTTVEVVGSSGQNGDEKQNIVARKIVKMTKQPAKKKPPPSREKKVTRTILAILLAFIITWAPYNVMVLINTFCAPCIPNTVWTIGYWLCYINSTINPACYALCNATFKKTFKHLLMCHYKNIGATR
Procedure: as §1, §2

alpha 2A = target: T6, alpha 2A (Homo sapiens, UniProt P08913); test: R-SAT broad profiling; assay type: cell-based; details: agonist; read-out: pEC50 or pIC50 (converted)
T6 construct: expressed in transfected cells; host or cells: NIH3T3
T6 sequence (P08913 1-465): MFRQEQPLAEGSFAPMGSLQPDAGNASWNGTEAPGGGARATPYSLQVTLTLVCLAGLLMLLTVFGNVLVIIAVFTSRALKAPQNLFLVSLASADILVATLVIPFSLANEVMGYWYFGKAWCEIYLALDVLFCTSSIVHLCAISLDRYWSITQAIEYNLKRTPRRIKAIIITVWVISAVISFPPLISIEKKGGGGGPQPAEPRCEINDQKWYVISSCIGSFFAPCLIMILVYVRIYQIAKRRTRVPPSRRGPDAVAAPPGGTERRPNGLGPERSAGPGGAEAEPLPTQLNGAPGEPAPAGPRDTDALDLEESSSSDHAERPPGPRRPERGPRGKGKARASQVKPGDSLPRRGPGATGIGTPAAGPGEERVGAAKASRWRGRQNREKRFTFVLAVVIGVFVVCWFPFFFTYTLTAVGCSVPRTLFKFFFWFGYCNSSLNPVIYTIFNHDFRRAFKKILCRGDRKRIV
Procedure: as §1, §2

D2 = D2 (Homo sapiens, UniProt P14416); test: R-SAT broad profiling; assay type: cell-based; set-up: expressed in transfected cells; host or cells: NIH3T3; details: read-out: pEC50/pIC50 (converted)
Procedure: as §1, with “Frozen cells were later thawed, plated at 10,000-40,000 cells per well of a 96 well plate that contained drug. With both methods, cells were then grown in a humidified atmosphere with 5% ambient CO2 for five days.” left out, “Efficacy is the percent maximal repression compared to repression by a control compound (ritanserin in the case of 5HT2A). pIC50 is the negative of the log(IC50), where IC50 is the calculated concentration in Molar that produces 50% maximal repression.” left out

Vasopressin1A = target: T7, Vasopressin1A (Homo sapiens, UniProt P37288); test: R-SAT broad profiling; assay type: cell-based; details: agonist; read-out: pEC50/pIC50 (converted)
T7 construct: expressed in transfected cells; host or cells: NIH3T3
Method in brief: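 NIH3T3 cells were transiently transfected for 12-16 h with receptor plasmid (50 ng/well) plus β-galactosidase reporter (20 ng/well), then grown with compound for five days. β-Galactosidase was read with ONPG at 420 nm. Efficacy is % maximal repression versus a control compound, and pIC50 is −log IC50 (M).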

Plasma levels (LC/MS/MS) = assay type: in vivo, human; details: after 13 days; for plasma concentration, Mean: n = 9
Procedure: Plasma Levels: Blood samples were collected into Vacutainer® (dry sodium heparin, green top tube, 6 mL capacity) on Day −1 and again on Day 14 (pre-dose). The time interval between blood collection and freezing of the plasma was no longer than 45 minutes. Within 45 minutes of collection, the plasma fractions were separated by centrifugation at 3,000 rotations per minutes for 10 minutes. The plasma fractions were divided and transferred into two properly labeled storage tubes and frozen at approximately −70° C. Plasma samples were evaluated for N-(1-methylpiperidin-4-yl)-N-(4-fluorophenylmethyl)-N′-(4-(2-methylpropyloxy)phenylmethyl)carbamide using a validated high performance liquid chromatography/tandem mass spectrometric (LC/MS/MS) assay.

T3 sequence (P41145 whole entry): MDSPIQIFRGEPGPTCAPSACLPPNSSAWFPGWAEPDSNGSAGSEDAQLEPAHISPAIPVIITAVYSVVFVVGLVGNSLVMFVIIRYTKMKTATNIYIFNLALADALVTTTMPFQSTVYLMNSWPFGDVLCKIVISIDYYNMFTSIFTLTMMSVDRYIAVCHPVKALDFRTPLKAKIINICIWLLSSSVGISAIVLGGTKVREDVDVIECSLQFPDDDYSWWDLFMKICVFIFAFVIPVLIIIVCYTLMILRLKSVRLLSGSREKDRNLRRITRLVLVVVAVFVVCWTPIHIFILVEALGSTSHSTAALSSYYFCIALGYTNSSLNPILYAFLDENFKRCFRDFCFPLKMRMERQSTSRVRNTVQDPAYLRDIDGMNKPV
T1 sequence (P20309 whole entry): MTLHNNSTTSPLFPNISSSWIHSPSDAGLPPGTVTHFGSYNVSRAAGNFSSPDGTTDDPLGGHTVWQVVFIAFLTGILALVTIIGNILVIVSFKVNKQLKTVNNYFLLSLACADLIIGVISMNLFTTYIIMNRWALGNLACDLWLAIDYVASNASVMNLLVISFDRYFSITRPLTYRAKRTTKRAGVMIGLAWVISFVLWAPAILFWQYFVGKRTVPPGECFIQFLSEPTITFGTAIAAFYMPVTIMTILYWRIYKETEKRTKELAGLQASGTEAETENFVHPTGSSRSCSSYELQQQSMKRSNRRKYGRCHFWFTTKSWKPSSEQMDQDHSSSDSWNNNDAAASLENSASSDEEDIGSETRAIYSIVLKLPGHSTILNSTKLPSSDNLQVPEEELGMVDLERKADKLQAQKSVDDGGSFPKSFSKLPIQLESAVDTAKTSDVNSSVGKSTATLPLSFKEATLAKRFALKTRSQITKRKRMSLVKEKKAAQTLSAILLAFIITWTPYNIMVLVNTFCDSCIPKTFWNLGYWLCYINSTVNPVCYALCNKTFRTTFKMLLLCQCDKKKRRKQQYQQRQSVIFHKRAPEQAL
Chain of D2 (P14416 whole entry): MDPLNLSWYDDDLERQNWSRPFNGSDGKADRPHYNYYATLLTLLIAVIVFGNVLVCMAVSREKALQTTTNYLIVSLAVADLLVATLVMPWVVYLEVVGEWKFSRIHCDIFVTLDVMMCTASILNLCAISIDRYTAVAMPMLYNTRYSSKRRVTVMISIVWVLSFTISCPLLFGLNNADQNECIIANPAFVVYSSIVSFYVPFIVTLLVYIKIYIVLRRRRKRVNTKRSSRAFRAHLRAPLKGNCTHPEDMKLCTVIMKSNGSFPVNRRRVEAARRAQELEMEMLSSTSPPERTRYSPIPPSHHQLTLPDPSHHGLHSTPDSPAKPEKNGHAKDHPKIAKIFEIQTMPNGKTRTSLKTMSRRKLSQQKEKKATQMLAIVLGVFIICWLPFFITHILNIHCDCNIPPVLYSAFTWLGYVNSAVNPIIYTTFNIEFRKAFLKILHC
T4 sequence (P18841 whole entry): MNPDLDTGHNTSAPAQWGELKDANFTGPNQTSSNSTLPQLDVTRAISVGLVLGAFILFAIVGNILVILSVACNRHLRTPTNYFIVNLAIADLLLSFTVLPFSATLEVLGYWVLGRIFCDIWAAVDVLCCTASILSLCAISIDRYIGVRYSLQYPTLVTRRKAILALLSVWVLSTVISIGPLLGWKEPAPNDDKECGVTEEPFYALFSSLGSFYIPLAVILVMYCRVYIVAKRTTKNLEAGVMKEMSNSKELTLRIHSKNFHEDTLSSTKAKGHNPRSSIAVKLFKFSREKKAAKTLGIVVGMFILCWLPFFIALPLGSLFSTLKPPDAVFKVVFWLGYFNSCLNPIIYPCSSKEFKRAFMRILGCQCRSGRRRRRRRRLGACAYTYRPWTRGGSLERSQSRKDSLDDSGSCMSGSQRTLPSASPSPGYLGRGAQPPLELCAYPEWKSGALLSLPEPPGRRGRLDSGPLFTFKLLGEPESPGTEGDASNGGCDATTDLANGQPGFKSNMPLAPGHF
T2 sequence (P35462 whole entry): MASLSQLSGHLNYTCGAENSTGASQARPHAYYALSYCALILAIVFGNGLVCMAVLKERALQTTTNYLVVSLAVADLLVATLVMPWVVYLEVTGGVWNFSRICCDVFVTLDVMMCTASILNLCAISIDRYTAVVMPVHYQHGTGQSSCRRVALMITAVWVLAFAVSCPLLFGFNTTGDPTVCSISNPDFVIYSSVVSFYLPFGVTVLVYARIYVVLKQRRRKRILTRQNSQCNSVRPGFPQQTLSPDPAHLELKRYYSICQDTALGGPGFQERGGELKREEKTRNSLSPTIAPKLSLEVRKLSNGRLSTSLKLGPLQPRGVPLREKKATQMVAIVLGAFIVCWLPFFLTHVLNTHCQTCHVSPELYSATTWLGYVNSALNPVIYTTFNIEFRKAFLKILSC
T7 sequence (P37288 whole entry): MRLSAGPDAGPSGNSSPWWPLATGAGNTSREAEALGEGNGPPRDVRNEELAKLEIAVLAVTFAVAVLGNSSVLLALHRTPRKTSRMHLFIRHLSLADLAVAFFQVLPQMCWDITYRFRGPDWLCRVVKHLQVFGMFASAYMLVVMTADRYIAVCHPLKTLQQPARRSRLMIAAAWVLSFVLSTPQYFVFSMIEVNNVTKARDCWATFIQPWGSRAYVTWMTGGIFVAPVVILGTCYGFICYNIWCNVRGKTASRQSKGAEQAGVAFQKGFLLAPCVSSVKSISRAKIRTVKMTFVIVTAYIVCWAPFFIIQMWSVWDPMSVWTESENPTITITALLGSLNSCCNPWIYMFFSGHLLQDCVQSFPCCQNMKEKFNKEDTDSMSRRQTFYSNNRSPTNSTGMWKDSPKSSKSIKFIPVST

SMILES: CC(C)COc1ccc(CN2C(=O)OC3(CCN(C)CC3)C2Cc2ccc(F)cc2)cc1.Cl (racemic) [Example 69NLS75, 4-(4-Fluorobenzyl)-3-(4-isobutoxybenzyl)-8-methyl-1-oxa-3,8-diazaspiro[4.5]decan-2-one, hydrochloride]
EC50 (m3; agonist): > 3.16 µM
IC50 (m3; inverse): > 3.16 µM
EC50 (D3; agonist): > 3.16 µM
IC50 (D3; antagonist): > 3.16 µM
EC50 (oprk 1; agonist): > 3.16 µM
IC50 (oprk 1; antagonist): > 3.16 µM
EC50 (alpha 1B; agonist): > 3.16 µM
IC50 (alpha 1B; antagonist): > 3.16 µM
EC50 (m2): > 3.16 µM
EC50 (alpha 2A): > 3.16 µM

EC50 (D2; agonist): > 3.16 µM
IC50 (D2; antagonist): > 3.16 µM
EC50 (Vasopressin1A): > 3.16 µM
SMILES: COc1ccc(CC(=O)N(Cc2ccc(C)cc2)C2CCN(C)CC2)cc1 [Example 50ELH27, 2-(4-Methoxyphenyl)-N-(4-methylbenzyl)-N-(1-methylpiperidin-4-yl)acetamide]

plasma concentration, Maximum (Plasma levels (LC/MS/MS); 1 mg once daily): 2.33 ng/mL
plasma concentration, Median (Plasma levels (LC/MS/MS); 1 mg once daily): 1.750 ng/mL
plasma concentration, Minimum (Plasma levels (LC/MS/MS); 1 mg once daily): 0.92 ng/mL
plasma concentration, Mean (Plasma levels (LC/MS/MS); 1 mg once daily): 1.628 ng/mL
plasma concentration, Maximum (Plasma levels (LC/MS/MS); 2.5 mg once daily): 5.55 ng/mL
plasma concentration, Median (Plasma levels (LC/MS/MS); 2.5 mg once daily): 3.360 ng/mL
plasma concentration, Minimum (Plasma levels (LC/MS/MS); 2.5 mg once daily): 2.07 ng/mL
plasma concentration, Mean (Plasma levels (LC/MS/MS); 2.5 mg once daily): 3.647 ng/mL
plasma concentration, Maximum (Plasma levels (LC/MS/MS); 5 mg once daily): 13.00 ng/mL
plasma concentration, Median (Plasma levels (LC/MS/MS); 5 mg once daily): 8.720 ng/mL
plasma concentration, Minimum (Plasma levels (LC/MS/MS); 5 mg once daily): 5.91 ng/mL
plasma concentration, Mean (Plasma levels (LC/MS/MS); 5 mg once daily): 8.516 ng/mL
plasma concentration, Maximum (Plasma levels (LC/MS/MS); 20 mg once daily): 52.70 ng/mL
plasma concentration, Median (Plasma levels (LC/MS/MS); 20 mg once daily): 34.100 ng/mL
plasma concentration, Minimum (Plasma levels (LC/MS/MS); 20 mg once daily): 21.90 ng/mL
plasma concentration, Mean (Plasma levels (LC/MS/MS); 20 mg once daily): 35.033 ng/mL
SMILES: CC(C)COc1ccc(CNC(=O)N(Cc2ccc(F)cc2)C2CCN(C)CC2)cc1 [N-(1-methylpiperidin-4-yl)-N-(4-fluorophenylmethyl)-N′-(4-(2-methylpropyloxy)phenylmethyl)carbamide]
